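Protocol summary: plate cells (96-well), add compound at 5 concentrations, incubate 48 h, interpolate endpoints linearly. GI50: concentration for 50% inhibition of growth.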 Activity calls are given as the source filed them. Rule as the data show it: active = GI50 up to about 1.1 µM and inactive = higher. Where only a bound is given, the exact number is not on record here.

Test systems include XF498; K562; SN12C; NCI-H522; HOP-18; KM-20L2; DLD-1; CAKI-1; UACC-257; LOX IMVI; KM12; UACC-62; HCC 2998; SK-MEL-2.
Common to all, as to assay: NCI tumour cell line growth inhibition, 48 h

For the molecule `CN(C)c1ccc(O[Si](Oc2ccc(N(C)C)cc2)(Oc2ccc(N(C)C)cc2)Oc2ccc(N(C)C)cc2)cc1`, the GI50 in the assay with XF498 was 44.4 µM (inactive); in the assay with K562, > 100 µM (inactive); with SN12C, 96.8 µM (inactive); with NCI-H522 it was 25.7 µM (inactive); in the assay with HOP-18, > 100 µM (inactive); with KM-20L2, > 100 µM (inactive). Besides, the GI50 in the assay with DLD-1 was > 100 µM (inactive); with CAKI-1, > 100 µM (inactive); with UACC-257, 85.1 µM (inactive); in the assay with LOX IMVI it was 79.1 µM (inactive); with KM12, 71.6 µM (inactive); with UACC-62 it was > 100 µM (inactive). For the same molecule, in the assay with HCC 2998, the GI50 is 79.6 µM (inactive).

Turning to `COc1cc(/C=C(/C#N)C(N)=O)ccc1O`, the GI50 in the assay on XF498 was > 100 µM (inactive); in the assay with K562 it was > 100 µM (inactive); with SN12C, > 100 µM (inactive); in the assay on SK-MEL-2 it was > 70.8 µM (inactive); in the assay with NCI-H522 it was > 100 µM (inactive); in the assay with HOP-18, > 40.7 µM (inactive). Moreover, the GI50 with KM-20L2, with DLD-1, in the assay on CAKI-1, in the assay on UACC-257, in the assay with LOX IMVI and in the assay on KM12 was > 100 µM (inactive) in each case. For the same molecule, the GI50 in the assay with UACC-62 was > 100 µM (inactive); with HCC 2998 it was > 60.5 µM (inactive).

Regarding `COc1cc2c(cc1OC)C1Cc3sccc3CN1CC2` (stereo not given), the GI50 in the assay with XF498, in the assay on K562, with SN12C, in the assay with SK-MEL-2, in the assay on NCI-H522 and with HOP-18 was > 100 µM (inactive) in each case. Further, the GI50 in the assay on KM-20L2, in the assay with DLD-1, in the assay with CAKI-1, in the assay with UACC-257, in the assay on LOX IMVI and in the assay with UACC-62 was > 100 µM (inactive) throughout. For the same molecule, in the assay with HCC 2998, the GI50 is > 100 µM (inactive).

With `COc1cc(-c2ccc(/N=N/c3ccc4c(S(=O)(=O)O)cc(S(=O)(=O)O)c(N)c4c3O)c(OC)c2)ccc1/N=N/c1ccc2c(S(=O)(=O)O)cc(S(=O)(=O)O)c(N)c2c1O`, the GI50 was 36.1 µM (inactive) with XF498; > 100 µM (inactive) in the assay with K562; > 100 µM (inactive) in the assay on SN12C; > 100 µM (inactive) with SK-MEL-2; > 100 µM (inactive) in the assay with NCI-H522; > 44.3 µM (inactive) with HOP-18. In addition, the GI50 in the assay on KM-20L2, with DLD-1, in the assay with UACC-257, in the assay with LOX IMVI, with KM12 and with UACC-62 was > 100 µM (inactive) throughout. Besides, in the assay on HCC 2998, the GI50 is > 100 µM (inactive).

Consider `NC(=O)CCC(N=C(N)c1csc(C2OC(CO)C(O)C2O)n1)C(=O)O` (stereo not given), for which the GI50 in the assay with XF498 is > 100 µM (inactive); with K562, > 100 µM (inactive); in the assay with SN12C it was > 100 µM (inactive); in the assay on SK-MEL-2 it was > 100 µM (inactive); with NCI-H522, > 100 µM (inactive); with HOP-18 it was < 0.01 µM (active). Moreover, the GI50 in the assay with KM-20L2, with DLD-1, in the assay on CAKI-1, with UACC-257, in the assay with LOX IMVI and in the assay on KM12 was > 100 µM (inactive) throughout. Moreover, the GI50 in the assay with UACC-62 and with HCC 2998 was > 100 µM (inactive) throughout.

With `C=CC12CN(C)C3C4COC(CC41)C1(C(=O)Nc4ccccc41)C32` (stereo not given), the GI50 with XF498 was 21.5 µM (inactive); with K562, 165 µM (inactive); in the assay on SN12C it was > 200 µM (inactive); in the assay on SK-MEL-2 it was > 148 µM (inactive); with NCI-H522 it was 44.7 µM (inactive); with HOP-18, > 200 µM (inactive). Moreover, the GI50 with KM-20L2 is > 151 µM (inactive); in the assay with DLD-1, 198 µM (inactive); with CAKI-1 it was > 200 µM (inactive); in the assay on UACC-257 it was > 200 µM (inactive); in the assay with LOX IMVI, > 150 µM (inactive); in the assay with KM12, 168 µM (inactive). For the same molecule, the GI50 with UACC-62 was > 178 µM (inactive); in the assay with HCC 2998, > 151 µM (inactive).

On to `Cc1[nH]c(=O)[nH]c(=O)c1/C=C/C(=O)NC(CO)C[S+]([O-])Cc1ccccc1` (stereo not given), for which the GI50 was > 300 µM (inactive) with XF498; > 300 µM (inactive) with K562; > 300 µM (inactive) with SN12C; > 277 µM (inactive) in the assay with SK-MEL-2; > 300 µM (inactive) in the assay on NCI-H522; > 289 µM (inactive) with HOP-18. For the same molecule, the GI50 in the assay on KM-20L2 is > 300 µM (inactive); in the assay with DLD-1, > 300 µM (inactive); in the assay on CAKI-1, > 300 µM (inactive); in the assay on UACC-257, > 300 µM (inactive); in the assay with LOX IMVI, > 300 µM (inactive); in the assay on KM12 it was 299 µM (inactive). Also, the GI50 in the assay with UACC-62 and with HCC 2998 was > 300 µM (inactive) throughout.

The record behind these values is ChEMBL document CHEMBL1201862, “PubChem BioAssay data set” (2004).
